Measurements from ChEMBL document CHEMBL4819019, “Design, synthesis, antibacterial activity and toxicity of novel quaternary ammonium compounds based on pyridoxine and fatty acids” (Eur J Med Chem, 2021).

How the values were obtained:
[1] = Genotoxicity in Salmonella typhimurium TA1535/pSK1002 assessed as DNA-damage activity by measuring beta-galactosidase activity at 7.5 ug/ml measured by SOS-chromotest relative to solvent control; format: toxicity; conditions: salmonella enterica subsp. enterica serovar typhimurium; dose 7.5 µg/ml
[2] = Lipophilicity, logP of the compound; format: physicochemical; conditions: octanol/water
[3] = Genotoxicity in Salmonella typhimurium TA100 assessed as number of revertant by Ames spot test relative to solvent control; format: toxicity; conditions: salmonella enterica subsp. enterica serovar typhimurium
[4] = Cytotoxicity against human HEK293 cells assessed as cell viability measured after 72 hrs by MTT assay; format: cell-based
Bacillus subtilis = test: Antibacterial activity against Bacillus subtilis 168 measured after 24 hrs by broth microdilution method; format: functional
[5] = Genotoxicity in Salmonella typhimurium TA1535/pSK1002 assessed as DNA-damage activity by measuring beta-galactosidase activity at 150 ug/ml measured by SOS-chromotest relative to solvent control; format: toxicity; conditions: salmonella enterica subsp. enterica serovar typhimurium; dose 150 µg/ml
Staphylococcus aureus [6] = test: Antibacterial activity against Staphylococcus aureus ATCC 29213 measured after 24 hrs by broth microdilution method; format: functional
[7] = Genotoxicity in Salmonella typhimurium TA1535 assessed as number of revertant by Ames spot test relative to solvent control; format: toxicity; conditions: salmonella enterica subsp. enterica serovar typhimurium
[8] = Genotoxicity in Salmonella typhimurium TA1535/pSK1002 assessed as DNA-damage activity by measuring beta-galactosidase activity at 15 ug/ml measured by SOS-chromotest relative to solvent control; format: toxicity; conditions: salmonella enterica subsp. enterica serovar typhimurium; dose 15 µg/ml
[9] = Genotoxicity in Salmonella typhimurium TA1535/pSK1002 assessed as DNA-damage activity by measuring beta-galactosidase activity at 75 ug/ml measured by SOS-chromotest relative to solvent control; format: toxicity; conditions: salmonella enterica subsp. enterica serovar typhimurium; dose 75 µg/ml
Pseudomonas aeruginosa [10] = test: Antibacterial activity against Pseudomonas aeruginosa ATCC 27853 measured after 24 hrs by broth microdilution method; format: functional
[11] = Cytotoxicity against human skin fibroblasts assessed as cell viability measured after 72 hrs by MTT assay; format: cell-based, Fibroblast
Micrococcus luteus = test: Antibacterial activity against Micrococcus luteus clinical isolate measured after 24 hrs by broth microdilution method; format: functional
[12] = Genotoxicity in Salmonella typhimurium TA1535/pSK1002 assessed as DNA-damage activity by measuring beta-galactosidase activity at 750 ug/ml measured by SOS-chromotest relative to solvent control; format: toxicity; conditions: salmonella enterica subsp. enterica serovar typhimurium; dose 750 µg/ml
[13] = Genotoxicity in Salmonella typhimurium TA1537 assessed as number of revertant by Ames spot test relative to solvent control; format: toxicity; conditions: salmonella enterica subsp. enterica serovar typhimurium
[14] = Cytotoxicity against human mesenchymal stem cells assessed as cell viability measured after 72 hrs by MTT assay; format: cell-based
[15] = Genotoxicity in Salmonella typhimurium TA98 assessed as number of revertant by Ames spot test relative to solvent control; format: toxicity; conditions: salmonella enterica subsp. enterica serovar typhimurium
Escherichia coli [16] = test: Antibacterial activity against Escherichia coli MG 1655 measured after 24 hrs by broth microdilution method; format: functional
Klebsiella pneumoniae = test: Antibacterial activity against clinical isolate Klebsiella pneumoniae 1813 measured after 24 hrs by broth microdilution method; format: functional
Pseudomonas aeruginosa [17] = test: Antibacterial activity against clinical isolate Pseudomonas aeruginosa 1945 measured after 24 hrs by broth microdilution method; format: functional
Proteus sp. = test: Antibacterial activity against clinical isolate Proteus sp. 17 measured after 24 hrs by broth microdilution method; format: functional; conditions: Proteus sp. (in: enterobacteria)
Staphylococcus aureus [18] = test: Antibacterial activity against clinical isolate methicillin-resistant Staphylococcus aureus 713 measured after 24 hrs by broth microdilution method; format: functional
[19] = test system: Staphylococcus ureilyticus; test: Antibacterial activity against clinical isolate Staphylococcus ureilyticus 1972 measured after 24 hrs by broth microdilution method; format: functional
Staphylococcus aureus [20] = test: Antibacterial activity against clinical isolate Staphylococcus aureus 25 measured after 24 hrs by broth microdilution method; format: functional
Enterococcus faecalis [21] = test: Antibacterial activity against clinical isolate Enterococcus faecalis 23 measured after 24 hrs by broth microdilution method; format: functional
[22] = test system: Staphylococcus intermedius; test: Antibacterial activity against clinical isolate methicillin-resistant Staphylococcus intermedius 1143 measured after 24 hrs by broth microdilution method; format: functional
Moraxella = test: Antibacterial activity against clinical isolate Moraxella 765 measured after 24 hrs by broth microdilution method; format: functional
Pseudomonas sp. = test: Antibacterial activity against clinical isolate Pseudomonas sp. 5 measured after 24 hrs by broth microdilution method; format: functional
Staphylococcus aureus [23] = test: Antibacterial activity against clinical isolate methicillin-resistant Staphylococcus aureus 1065 measured after 24 hrs by broth microdilution method; format: functional
Serratia marcescens = test: Antibacterial activity against clinical isolate Serratia marcescens 1966 measured after 24 hrs by broth microdilution method; format: functional
Staphylococcus aureus [24] = test: Antibacterial activity against clinical isolate methicillin-resistant Staphylococcus aureus 1053 measured after 24 hrs by broth microdilution method; format: functional
Escherichia coli [25] = test: Antibacterial activity against clinical isolate Escherichia coli 718 measured after 24 hrs by broth microdilution method; format: functional
[26] = test system: Staphylococcus intermedius; test: Antibacterial activity against clinical isolate methicillin-resistant Staphylococcus intermedius 1061 measured after 24 hrs by broth microdilution method; format: functional
Staphylococcus aureus [27] = test: Antibacterial activity against clinical isolate methicillin-resistant Staphylococcus aureus 983 measured after 24 hrs by broth microdilution method; format: functional
Staphylococcus aureus [28] = test: Antibacterial activity against clinical isolate methicillin-resistant Staphylococcus aureus 1131 measured after 24 hrs by broth microdilution method; format: functional
Klebsiella sp. = test: Antibacterial activity against clinical isolate Klebsiella sp. 11 measured after 24 hrs by broth microdilution method; format: functional
Acinetobacter sp. = test: Antibacterial activity against clinical isolate Acinetobacter sp. 3 measured after 24 hrs by broth microdilution method; format: functional
Enterococcus faecalis [29] = test: Antibacterial activity against clinical isolate Enterococcus faecalis 3063 measured after 24 hrs by broth microdilution method; format: functional

Structure (SMILES)	Ratio [1]	logP [2]	Ratio [3]	CC50 at 72 h [4]	MIC (Bacillus subtilis)	Ratio [5]	MIC (Staphylococcus aureus [6])	Ratio [7]	Ratio [8]	Ratio [9]	MIC (Pseudomonas aeruginosa [10])	CC50 at 72 h [11]	MIC (Micrococcus luteus)	Ratio [12]	Ratio [13]	CC50 at 72 h [14]	Ratio [15]	MIC (Escherichia coli [16])	MIC (Klebsiella pneumoniae)	MIC (Pseudomonas aeruginosa [17])	other results
CCCCCCCCCCCCCC(=O)NCCC[N+](C)(C)Cc1cnc(C)c2c1COC(C)(C)O2.[Cl-]	1.5	1.47	2.5	1.61 µg/mL	2 µg/mL	0.5	0.5 µg/mL	0.4	1.5	0.7	8 µg/mL	3.14 µg/mL	1 µg/mL	1	0.03	2.21 µg/mL	2.6	8 µg/mL	–	–	–
CCCCCCCCCCCCCC(=O)NCC[N+](C)(C)Cc1cnc(C)c2c1COC(C)(C)O2.[Cl-]	1.5	1.41	1.3	1.18 µg/mL	4 µg/mL	0.5	2 µg/mL	0.8	1.5	0.7	2 µg/mL	3.03 µg/mL	4 µg/mL	0.4	0.06	2.16 µg/mL	1.7	8 µg/mL	4 µg/mL	64 µg/mL	MIC (Proteus sp.): > 64 µg/mL; MIC (Staphylococcus aureus [18]): 4 µg/mL; MIC [19]: 64 µg/mL; MIC (Staphylococcus aureus [20]): 4 µg/mL; MIC (Enterococcus faecalis [21]): 2 µg/mL; MIC [22]: 4 µg/mL; MIC (Moraxella): 64 µg/mL; MIC (Pseudomonas sp.): 64 µg/mL; MIC (Staphylococcus aureus [23]): 8 µg/mL; MIC (Serratia marcescens): 64 µg/mL; MIC (Staphylococcus aureus [24]): 4 µg/mL; MIC (Escherichia coli [25]): 32 µg/mL; MIC [26]: 4 µg/mL; MIC (Staphylococcus aureus [27]): 64 µg/mL; MIC (Staphylococcus aureus [28]): 16 µg/mL; MIC (Klebsiella sp.): 64 µg/mL; MIC (Acinetobacter sp.): 64 µg/mL; MIC (Enterococcus faecalis [29]): 2 µg/mL
CCCCCCCCCCCCCC(=O)OCC[N+](C)(C)Cc1cnc(C)c2c1COC(C)(C)O2.[Cl-]	1.6	2.14	1.4	0.17 µg/mL	1 µg/mL	0.6	0.5 µg/mL	0.9	1.6	1.2	1 µg/mL	1.94 µg/mL	0.5 µg/mL	0.4	0.02	1.08 µg/mL	4.6	8 µg/mL	64 µg/mL	64 µg/mL	MIC (Proteus sp.): > 64 µg/mL; MIC (Staphylococcus aureus [18]): 8 µg/mL; MIC [19]: > 64 µg/mL; MIC (Staphylococcus aureus [20]): 8 µg/mL; MIC (Enterococcus faecalis [21]): 4 µg/mL; MIC [22]: 8 µg/mL; MIC (Moraxella): 64 µg/mL; MIC (Pseudomonas sp.): 64 µg/mL; MIC (Staphylococcus aureus [23]): 8 µg/mL; MIC (Serratia marcescens): 64 µg/mL; MIC (Staphylococcus aureus [24]): 8 µg/mL; MIC (Escherichia coli [25]): 32 µg/mL; MIC [26]: 8 µg/mL; MIC (Staphylococcus aureus [27]): 64 µg/mL; MIC (Staphylococcus aureus [28]): 16 µg/mL; MIC (Klebsiella sp.): 64 µg/mL; MIC (Acinetobacter sp.): 64 µg/mL; MIC (Enterococcus faecalis [29]): 4 µg/mL
